Laboratory results reported in patent US9108957B2 (MITSUBISHI TANABE PHARMA CORPORATION, priority 2009, dated 2015).

Target: human recombinant TPK1 (Homo sapiens, UniProt P49841)
Test: Inhibitory activity against P-GS1 phosphorylation by TPK1 (Kinase Glo luminescence)
Assay type: biochemical
Conditions: 7.5 μM P-GS1, 10 μM ATP, 25° C. for 16 hours, Kinase Glo Reagent luminescent signal
In short: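 Human recombinant TPK1 phosphorylated 7.5 μM P-GS1 with 10 μM ATP in 100 mM HEPES-NaOH pH 7.2 with Mg, EGTA, DTT, Tween 20 and 1% DMSO final, for 16 h at 25° C. Remaining ATP was read by Kinase Glo luminescence. IC50 was normalised to no-enzyme (0%) and no-compound (100%) controls.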

human recombinant TPK1, sequence (P49841 whole entry): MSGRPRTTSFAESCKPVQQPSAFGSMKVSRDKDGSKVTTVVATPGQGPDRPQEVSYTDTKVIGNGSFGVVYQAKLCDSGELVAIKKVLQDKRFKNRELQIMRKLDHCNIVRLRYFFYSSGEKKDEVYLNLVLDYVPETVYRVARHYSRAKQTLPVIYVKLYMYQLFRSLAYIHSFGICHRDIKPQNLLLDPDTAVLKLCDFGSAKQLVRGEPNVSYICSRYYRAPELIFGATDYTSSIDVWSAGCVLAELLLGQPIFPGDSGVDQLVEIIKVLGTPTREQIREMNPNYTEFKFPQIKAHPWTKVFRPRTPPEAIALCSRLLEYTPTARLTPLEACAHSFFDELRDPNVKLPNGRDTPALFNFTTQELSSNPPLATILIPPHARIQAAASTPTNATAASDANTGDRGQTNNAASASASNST

IC50 [nM]	Structure (SMILES)
9.7	CC1CCOCCN1c1nc(-c2ccncc2F)cc(=O)n1C (stereo not shown) [Compound A067, 6-(3-fluoropyridin-4-yl)-3-methyl-2-(5-methyl-1,4-oxazepan-4-yl)pyrimidin-4(3H)-one]
32.7	Cn1c(N2CCCOC(c3ccccc3)C2)nc(-c2ccncc2)cc1=O (stereo not shown) [Compound A040, 2-(2-phenyl-1,4-oxazepan-4-yl)-3-methyl-6-(pyridin-4-yl)pyrimidin-4(3H)-one]
34.8	CC1CN(c2nc(-c3ccncc3F)cc(=O)n2C)CCCO1 (stereo not shown) [Compound A041, 2-(2-methyl-1,4-oxazepan-4-yl)-6-(3-fluoropyridin-4-yl)-3-methylpyrimidin-4(3H)-one]
10.3	COc1ccccc1C1CCN(c2nc(-c3ccncc3F)cc(=O)n2C)CCO1 (stereo not shown) [Compound A094, 2-[7-(2-methoxyphenyl)-1,4-oxazepan-4-yl]-6-(3-fluoropyridin-4-yl)-3-methylpyrimidin-4(3H)-one]
100	Cc1noc(-c2ccc([C@@H]3CN(c4nc(-c5ccncc5F)cc(=O)n4C)CCCO3)cc2)n1 [Compound A053, (R)-2-[2-[4-(3-methyl-1,2,4-oxadiazol-5-yl)-phenyl]-1,4-oxazepan-4-yl]-6-(3-fluoropyridin-4-yl)-3-methylpyrimidin-4(3H)-one]
77.4	Cc1nc(-c2ccc([C@H]3CN(c4nc(-c5ccncc5)cc(=O)n4C)CCCO3)cc2)no1 [Compound A050, (S)-2-[2-[4-(5-methyl-[1,2,4]oxadiazol-3-yl)-phenyl]-1,4-oxazepan-4-yl]-3-methyl-6-(pyridin-4-yl)pyrimidin-4(3H)-one]
5.4	Cn1c(N2CCOC(c3ccc(-c4ncon4)cc3)CC2)nc(-c2ccncc2F)cc1=O (single isomer, unassigned; (+)) [Compound A089]
18.7	Cn1c(N2CCOC(c3ccccc3F)CC2)nc(-c2ccncn2)cc1=O (stereo not shown) [Compound A105, 2-[7-(2-fluorophenyl)-1,4-oxazepan-4-yl]-3-methyl-6-(pyrimidin-4-yl)pyrimidin-4(3H)-one]
809	Cn1c(N2CCCO[C@H](c3ccc(C(N)=O)cc3)C2)nc(-c2ccncc2)cc1=O [Compound A062, (R)-2-[2-(4-aminocarbonylphenyl)-1,4-oxazepan-4-yl]-3-methyl-6-(pyridin-4-yl)pyrimidin-4(3H)-one]
3.1	Cn1c(N2CCOC[C@@H](c3ccc(C#N)cc3)C2)nc(-c2ccncn2)cc1=O [Compound A076, (S)-2-[6-(4-cyanoophenyl)-1,4-oxazepan-4-yl]-3-methyl-6-(pyrimidin-4-yl)pyrimidin-4(3H)-one]
15.3	COc1cccc(C2CCN(c3nc(-c4ccncn4)cc(=O)n3C)CCO2)c1 (stereo not shown) [Compound A101, 2-[7-(3-methoxyphenyl)-1,4-oxazepan-4-yl]-3-methyl-6-(pyrimidin-4-yl)pyrimidin-4(3H)-one]
48	Cn1c(N2CCOC(c3ccc(-c4ncno4)cc3)CC2)nc(-c2ccncn2)cc1=O (single isomer, unassigned; (-)) [Compound A116, (−)-2-[7-[4-(1,2,4-oxadiazol-5-yl)-phenyl]-1,4-oxazepan-4-yl]-3-methyl-6-(pyrimidin-4-yl)pyrimidin-4(3H)-one]
1.4	Cn1c(N2CCOCC(c3ccccc3)C2)nc(-c2ccncn2)cc1=O (single isomer, unassigned; (-)) [Compound A075, (−)-2-(6-phenyl-1,4-oxazepan-4-yl)-3-methyl-6-(pyrimidin-4-yl)pyrimidin-4(3H)-one]
80.3	CC1CN(c2nc(-c3ccncn3)cc(=O)n2C)CCCO1 (stereo not shown) [Compound A051, 2-(2-methyl-1,4-oxazepan-4-yl)-3-methyl-6-(pyrimidin-4-yl)pyrimidin-4(3H)-one]
68.8	Cn1c(N2CCCO[C@H](c3cccc(C(N)=O)c3)C2)nc(-c2ccncc2)cc1=O [Compound A048, (R)-2-[2-(3-aminocarbonylphenyl)-1,4-oxazepan-4-yl]-3-methyl-6-(pyridin-4-yl)pyrimidin-4(3H)-one]
30.9	Cn1c(N2CCCO[C@H](c3ccc(C(N)=O)cc3)C2)nc(-c2ccncc2F)cc1=O [Compound A038, (R)-2-[2-(4-aminocarbonylphenyl)-1,4-oxazepan-4-yl]-6-(3-fluoropyridin-4-yl)-3-methylpyrimidin-4(3H)-one]
97.5	Cn1c(N2CCCOCC2c2ccccc2)nc(-c2ccncn2)cc1=O (stereo in doubt) [Compound A065, (S)-3-methyl-2-(3-phenyl-1,4-oxazepan-4-yl)-6-(pyrimidin-4-yl)pyrimidin-4(3H)-one]

More lines, now with the values behind:

Structure (SMILES)	IC50 [nM]
Cn1c(N2CCCN(c3ccc(F)cc3)CC2)nc(-c2ccncc2F)cc1=O [Compound A003, 2-[4-(4-fluorophenyl)-1,4-diazepan-1-yl]-6-(3-fluoropyridin-4-yl)-3-methylpyrimidin-4(3H)-one]	18.4
Cn1c(N2CCCO[C@@H](c3cccc(C(N)=O)c3)C2)nc(-c2ccncn2)cc1=O [Compound A015, (S)-2-[2-(3-aminocarbonylphenyl)-1,4-oxazepan-4-yl]-3-methyl-6-(pyrimidin-4-yl)pyrimidin-4(3H)-one]	9.3
Cn1c(N2CCCOC(c3ccccc3)C2)nc(-c2ccncc2F)cc1=O (stereo not shown) [Compound A006, 2-(2-phenyl-1,4-oxazepan-4-yl)-6-(3-fluoropyridin-4-yl)-3-methylpyrimidin-4(3H)-one]	2.3
Cn1c(N2CCCO[C@@H](c3ccc(C(N)=O)cc3)C2)nc(-c2ccncc2)cc1=O [Compound A017, (S)-2-[2-(4-aminocarbonylphenyl)-1,4-oxazepan-4-yl]-3-methyl-6-(pyridin-4-yl)pyrimidin-4(3H)-one]	11
Cn1c(N2CCCO[C@@H](c3ccc(C(N)=O)cc3)C2)nc(-c2ccncn2)cc1=O [Compound A018]	11
Cn1c(N2CCCO[C@@H](c3ccc(F)cc3)C2)nc(-c2ccncc2)cc1=O [Compound A022, (S)-2-[2-(4-fluorophenyl)-1,4-oxazepan-4-yl]-3-methyl-6-(pyridin-4-yl)pyrimidin-4(3H)-one]	12.5
Cc1noc(-c2cccc([C@H]3CN(c4nc(-c5ccncc5F)cc(=O)n4C)CCCO3)c2)n1 [Compound A032, (S)-2-[2-[3-(3-methyl-1,2,4-oxadiazol-5-yl)-phenyl]-1,4-oxazepan-4-yl]-6-(3-fluoropyridin-4-yl)-3-methylpyrimidin-4(3H)-one]	21.6
Cn1c(N2CCCOC(c3ccccc3)C2)nc(-c2ccncn2)cc1=O (stereo not shown) [Compound A026, 2-(2-phenyl-1,4-oxazepan-4-yl)-3-methyl-6-(pyrimidin-4-yl)pyrimidin-4(3H)-one]	14.6
Cn1c(N2CCCO[C@@H](c3ccc(Br)cc3)C2)nc(-c2ccncc2)cc1=O [Compound A021, (S)-2-[2-(4-bromophenyl)-1,4-oxazepan-4-yl]-3-methyl-6-(pyridin-4-yl)pyrimidin-4(3H)-one]	12
Cc1noc(-c2ccc([C@H]3CN(c4nc(-c5ccncn5)cc(=O)n4C)CCCO3)cc2)n1 [Compound A031, (S)-2-[2-[4-(3-methyl-1,2,4-oxadiazol-5-yl)-phenyl]-1,4-oxazepan-4-yl]-3-methyl-6-(pyrimidin-4-yl)pyrimidin-4(3H)-one]	20.2
Cc1noc(-c2ccc([C@H]3CN(c4nc(-c5ccncc5)cc(=O)n4C)CCCO3)cc2)n1 [Compound A036, (S)-2-[2-[4-(3-methyl-1,2,4-oxadiazol-5-yl)-phenyl]-1,4-oxazepan-4-yl]-3-methyl-6-(pyridin-4-yl)pyrimidin-4(3H)-one]	28.7
